# Legend:
# [1] = system: LDL; experiment: Inhibition of LDL lipid peroxidation (cupric sulfate induced, thiobarbituric acid assay, method of Yagi et al.); assay type: biochemical; settings: 250 µg LDL in 0.5 mL, cupric sulfate 18 µM, 37°C for 2.5 hours or 18 hours; for IC50: read-out: LDL Perox. IC₅₀; for LDL Perox. ID₅₀: dose required to inhibit 50% of LDL peroxidation
# Description: (§1) Determine the degree of inhibition of LDL and plasma lipid peroxidation by [8]-gingerol and anti-[8]-gingerdiol by the method of Yagi et al. [Vitamins 39, 105 (1968)].
# (§2) Incubate a 0.5 mL solution containing 250 micrograms (µg) of LDL or 0.1 mL of plasma with the test compound, in amounts varying from 0 to 250 µg, for 30 minutes at 24°C. To this mixture add 10 µL of a cupric sulfate solution (final concentration 18 µM in LDL assay, 2 mM in plasma assay) and incubate at 37°C for 2.5 hours or 18 hours. Determine the amount of peroxidation of LDL or plasma by the thiobarbituric acid assay. Calculate the dose of test compound required to inhibit 50% of LDL or plasma lipid peroxidation (ID₅₀) and the concentration of test compound required to inhibit 50% of LDL or plasma lipid peroxidation (IC₅₀).
# [2] = system: plasma; experiment: Inhibition of plasma lipid peroxidation (cupric sulfate induced, thiobarbituric acid assay, method of Yagi et al.); assay type: biochemical; settings: 0.1 mL of plasma, cupric sulfate 2 mM, 37°C for 2.5 hours or 18 hours; for IC50: read-out: Plas.Lipid Perox. IC₅₀; for Plas.Lipid Perox. ID₅₀: dose required to inhibit 50% of plasma lipid peroxidation
# Description: as §1, §2
# [3] = Effect on serum cholesterol in the cholesterol-fed rabbit; assay type: in vivo
# Text: Feed rabbits with 1% cholesterol (w/w) in standard rabbit chow supplemented with (n=5) or without (n=8) 0.5% anti-[8]-gingerdiol (w/w). Each rabbit consumes 120 grams of food per day. Collect blood samples and determine cholesterol in freshly prepared serum using an enzymatic method described by Mao et al., Clin.Chem 29, 1890 (1983).
# [4] = system: aortas; experiment: Antiatherogenic effect in the cholesterol-fed rabbit (Sudan IV stained aortic lesions); assay type: in vivo; settings: rabbits fed 1% cholesterol chow with 0.5% (w/w) compound for 56 days, n=5
# Text: Feed rabbits with 1% cholesterol (w/w) in standard rabbit chow supplemented with (n=5) or without (n=6) 0.5% anti-[8]-gingerdiol (w/w) for 56 days. Each rabbit consumes 120 grams of food per day. Immediately following sacrifice by intravenous injection of sodium pentobarbital, dissect the aortas from the ascending arch to the […] bifurcation.
# Remove extraneous adipose tissue, open the aortas longitudinally and rinse several times with saline. Stain the aortas with Sudan IV and photograph using the method described by Mao et al. [J.Med.Chem. 34, 302 (1991)]. Digitize the areas of sudanophilic lesions in the thoracic region of the aorta with a Magiscan image analysis system. Distinguish stained versus unstained areas on the basis of Sudan Red staining. Quantitate the corresponding lesioned and unlesioned areas accordingly.
IC50 [1] [µM],IC50 [2] [µM],Structure (SMILES),LDL Perox. ID₅₀ [1] [nmol],Plas.Lipid Perox. ID₅₀ [2] [nmol],"Cholesterol (mg/dL±SEM) Day 0 ([3]; Day 0 (baseline), rabbits fed 1% cholesterol chow with 0.5% (w/w) compound, n=5) [mg/dL]","Cholesterol (mg/dL±SEM) Day 10 ([3]; Day 10, rabbits fed 1% cholesterol chow with 0.5% (w/w) compound, n=5, control 790 ± 103) [mg/dL]","Cholesterol (mg/dL±SEM) Day 28 ([3]; Day 28, rabbits fed 1% cholesterol chow with 0.5% (w/w) compound, n=5, control 2177 ± 97) [mg/dL]","% Lesions (±SEM) in Abdominal ([4]; abdominal aorta, control 28 ± 7) [%]","% Lesions (±SEM) in Arch ([4]; aortic arch, control 83 ± 7) [%]","% Lesions (±SEM) in Thoracic ([4]; thoracic aorta, control 62 ± 8) [%]"
72,16.6,"CCCCCCCC(O)CC(O)CCc1ccc(O)c(OC)c1 (stereo not drawn) [anti-[8]-Gingerdiol, Anti-1-(4'-hydroxy-3'-methoxyphenyl)-3,5-dodecanediol]",40,10,82 ± 12,515 ± 154,1615 ± 216,24 ± 10,73 ± 12,38 ± 16
109,8.3,"CCCCCCCC(O)CC(=O)CCc1ccc(O)c(OC)c1 (centres unmarked) [[8]-Gingerol, 1-(4'-Hydroxy-3'-methoxyphenyl)-5-hydroxy-3-dodecanone]",60,5,,,,,,

# Reference: patent EP0516082A2, “Gingerol and gingerdiol derivatives as hypocholesterolemic and antiatherosclerotic agents” (priority 1991, dated 1992)
